Holding throughout (format): in vivo
For experiment [1], the system named is SD rats. Description: Transient middle cerebral artery occlusion (tMCAO) model, TTC-stained infarct area. The following applies: 2 hr occlusion, 24 hr reperfusion; for infraction areas compared with control (neuro-therapeutic): 60 mg/kg i.p. 15 minutes after occlusion; for infraction areas compared with control (neuro-prevention): 60 mg/kg i.p. 15 minutes before occlusion. How it is done: 1.1. Neuro-Prevention Study of Transient MCAO (tMCAO) Model
Male, SD rats weighing 290-300 g were purchased from Nara Bio Tech. (Pyoung-tek, Korea) Animals were maintained with laboratory animal food and water ad libitum in an animal facility with a 12 h light/dark cycle at a controlled temperature (23±2° C.) until used. All animal experiments were carried out in accordance with the Korean Academy of Medical Sciences Guide for Care and Use of Laboratory Animals.
The rats were anesthetized with isoflurane (Hana-phram., Korea) and anesthesia machine was set to 1.0 L/min N2O (Surgi-Vet, USA). Isoflurane and N2O gas ratio was 3:3 for induction anesthesia, and lower to 2:1 (isoflurane:N2O) to maintain anesthesia. Body temperature was monitored continuously by a rectal thermo meter probe and maintained at 37±0.5° C. by placing the animals on a heating pad (Jung-do B&P, Korea). The MCA (middle cerebral artery) occlusion was induced by the procedure of Longa et al. (1989) with minor modifications. Briefly, surgical nylon suture thread (4-0, Diameter: 0.39 mm, Coating length: 0.56 mm, Doccol suture, USA) with a round tip was advanced from the external carotid artery (ECA) into the lumen of the internal carotid artery (ICA) to occlude the origin of the MCA. The wound was closed, and the animals were allowed to home cage for recover.
Priority, the infraction areas when the compound of Example 1 was treated at various time points were measured for peak time when is the best efficacy time (see FIG. 1). And then, rats received 60 mg/kg dose of each compound of Examples 1, 65 and 67, intraperitoneally (i.p.) at 15 minutes before MCA occlusion (see FIG. 2, animal numbers of each compound of Examples 1 (n=8), 65 (n=5) and 67 (n=6)). All compounds were dissolved in 30% polyethylene glycol (Compound of Example 1) or 20% (w/v) Tween 80 (Compounds of Examples 65 and 67) once in volume of 4 ul/g bw. Control group (n=33) was identical to those in the MCA occlusion rats except for injection of vehicle (4 ul/g bw of 30% (w/v) polyethylene glycol or 20% (w/v) Tween 80, intraperitoneally (i.p.)). Two hours after MCA occlusion, reperfusion was accomplished by pulling the suture thread back to the bifurcation until the tip cleared the ICA.
The experimentation was identical performed as described in Experimental Example 1.1, except that each compound examples of 1, 65 and 67 was administered at 15 minutes after MCA occlusion (FIG. 3, animal numbers of each compound of Examples 1 (n=7), 65 (n=6) and 67 (n=5)), to test the therapeutic effect of the compounds. Control group (n=33) was identical to those in the MCA occlusion rats except for injection of vehicle (4 ul/g bw of 30% polyethylene glycol or 20% Tween 80, intraperitoneally (i.p.)).
After 24 hours of reperfusion, rats were anesthetized with isoflurane (Hana-phram., Korea). The brain was then quickly removed and cut into 2-mm thick coronal block slices in brain matrix. The slices were immersed in a 2% (w/v) solution of 2,3,5-triphenyltetrazolium chloride (TTC) in normal saline at 37° C. for 10 min and then fixed in 10% (v/v) formalin solution at room temperature for overnight. The TTC stained brain slices were photographed using a digital camera (5000D, Nikon, Japan). The size of infarct was calculated with an image analysis system (Image-Pro Plus 4.0, Media Cybernetics, USA) and measurement of infarct area were expressed as the percentage (% control) of infarct area in reference to the compared with ipsilateral hemisphere of control group (see FIGS. 2 and 3).
Statistical analysis results are presented as the mean±S.E.M. and measures analysis of variance was used for comparison of the results of hemispheric infarct area, obtained from 5˜33 rats in each group. Data were analyzed by either one-way analysis of variance (ANOVA) followed by Tukey's test for multiple comparisons. p values less than 0.05 were considered to be statistically significant (see FIGS. 1 and 4).

The test system of experiment [2] is SD rats. The experiment can be described thus: Permanent middle cerebral artery occlusion (pMCAO) model, TTC-stained infarct area. Conditions: 60 mg/kg i.p. b.i.d.; for infraction areas compared with control (neuro-therapeutic): 1st inj. 0.25 hr after occlusion, 8 hr interval, occlusion 1, 3, 7 days.
Experiment [3] concerns mice. The experiment can be described thus: MES test (anti-excitotoxicity activity). The following applies: Mus musculus, po, 4 mice, read-out: MES test(po) Protection %; for responders at 100 mg/kg: injection amount 100 mg/kg.

For the compound `C[C@H](OC(N)=O)[C@@H](O)c1ccccc1Cl` [Compound 1, 1-(2-chlorophenyl)-(S)-1-hydroxypropyl-(S)-2-carbamate], in experiment [1], the “infraction areas compared with control (neuro-therapeutic)” value is “significantly reduced” and the “infraction areas compared with control (neuro-prevention)” value is on record as “significantly reduced”. The “infraction areas compared with control (neuro-therapeutic)” value in experiment [2] is listed as “significantly reduced”. The “neuro-therapeutic effect, TTC-stained infarction area” value in experiment [2] (1st inj. 1 hr after occlusion, occlusion for 3 days) is listed as “neuro-therapeutic effect”.

In the case of `CCCC[C@H](OC(N)=O)[C@@H](O)c1ccccc1Cl` [Compound 12, 1-(2-chlorophenyl)-(S)-1-hydroxyhexyl-(S)-2-carbamate], the responders at 100 mg/kg in experiment [3] was 75%.

For `CC[C@H](OC(N)=O)[C@@H](O)c1ccccc1I` [Compound 67, 1-(2-iodophenyl)-(S)-1-hydroxybutyl-(S)-2-carbamate], the “infraction areas compared with control (neuro-therapeutic)” value is recorded as “significantly reduced” in experiment [1] and “neuro-therapeutic effects” in experiment [2]. In experiment [1], the “infraction areas compared with control (neuro-prevention)” value is on record as “significantly reduced”. For the same compound, the responders at 100 mg/kg in experiment [3] was found to be 100%.

In the case of `CCCC[C@H](OC(N)=O)[C@@H](O)c1c(Cl)cccc1Cl` [Compound 44, 1-(2,6-dichlorophenyl)-(S)-1-hydroxyhexyl-(S)-2-carbamate], the responders at 100 mg/kg in experiment [3] came to 75%.

For the compound `CCCC[C@H](OC(N)=O)[C@@H](O)c1ccc(Cl)cc1Cl` [Compound 43, 1-(2,4-dichlorophenyl)-(S)-1-hydroxyhexyl-(S)-2-carbamate], in experiment [3], the responders at 100 mg/kg was 25%.

On to `CCCC[C@@H](OC(N)=O)[C@H](O)c1ccccc1Cl` [Compound 13, 1-(2-chlorophenyl)-(R)-1-hydroxyhexyl-(R)-2-carbamate], for which the responders at 200 mg/kg in experiment [3] (injection amount 200 mg/kg) was 75%.

In the case of `C[C@H](OC(N)=O)[C@@H](O)c1ccccc1I` [Compound 65, 1-(2-iodophenyl)-(S)-1-hydroxypropyl-(S)-2-carbamate], the “infraction areas compared with control (neuro-therapeutic)” value in experiment [1] was “significantly reduced”; in experiment [2], “neuro-therapeutic effects”. Also, in experiment [1], the “infraction areas compared with control (neuro-prevention)” value is “significantly reduced”. Besides, in experiment [3] (injection amount 50 mg/kg), the responders at 50 mg/kg turned out to be 100%.
